Where a SMILES comes first, the peptide text is derived from it. [ ]: non-standard residue; d: D form. d1Nal = N[C@H](Cc1cccc2ccccc12)C(=O)O; d2Nal = N[C@H](Cc1ccc2ccccc2c1)C(=O)O; Aib = CC(C)(N)C(=O)O
Tested on: rat pituitary cells
Assay: In-vitro GH release assay using rat pituitary cells (rGH measured by SPA)
Type: cell-based
Details: GH secretion from cultured male rat anterior pituitary cells, 15 min stimulation
Description: An in-vitro assay using rat pituitary cells was established to study the effect of different GH secretagogues. The mixed pituitary cell culture was isolated from the anterior pituitary of male rats and cultured for 3 days. After washing the cells were stimulated for 15 min and the amount of GH secreted measured in the culture supernatant. The isolation of rat pituitary cells was a modification of 0. Sartor et al., Endocrinolog 116, 1985, pp. 952-957. Pituitaries were discharged from 250 g male Sprague-Dawley rats after decapitation. The neurointermediate lobes were removed and the remainder was placed in Grey's medium supplemented with 0.25% glucose, 2× non essential amino acid and 1% BSA (isolation buffer). The glands were cut into small pieces and transferred to a flask containing 3 ml isolation buffer+11.5 mg trypsin and 1000 μg DNase and incubated for 35 min at 37° C., 95% ° 2 and 70 rotations per min. The fragments were washed 3 times by sedimentation in isolation buffer and aspirated into single cells by using a pasteur pipet. After dispersion the cells were filtered though a nylon filter (160 jum) to remove undigested tissue. The cells were washed 3 times with isolation buffer supplemented with trypsin inhibitor (0.75 mg/ml) and resuspended in culture medium (DMEM supplemented with 25 mM HEPES, 4mM Glutamine, 0.75% sodium bicarbonate, 2.5% FCS, 3% horse serum, 10% rat serum, 1 nM T3 and 40 gg/L dexamethasone) to a density of 2×10^5 cells/ml. The cells were seeded into microtiter plates, 200 μl/well and cultured for 3 days at 37° C.and 8% CO2. Following the culture period the cells were washed twice with stimulation buffer (HBSS supplemented with 1% BSA, 0.25% D-glucose and 25 mM HEPES) and preincubated for 1 hour. The buffer was then removed and new stimulation buffer containing the peptide was added and the plates were incubated for 15 min at 37° C.and 5% CO2. The medium was collected and analyzed for rat growth hormone (rGH) content in a scintillation proximity assay (SPA) as follows (SPA, essentially as described in U.S. Pat. No. 4,568,649, Hart and […], Mol.Immunol. 16, 1979, pp. 265-269, or Udenfriend et al., Proc.Natl.Acad.Sci. USA 82, 1985, pp. 8672-8676). The rGH assay was performed in OptiPlates (96-well plates) suitable for direct counting in a […] TopCount (β-scintillation counter). Assay Protocol: 40 μl buffer 10 μl sample (incubated stimulation buffer) […] 50 μl rabbit anti-rGH 50 μl SPA reagent (anti-rabbit antibody) The plates are sealed and placed on a plate shaker for 30 minutes followed by 10 hours of incubation and settling at 10-15° C.and counting. In the SPA, rGH bound to an anti-GH rabbit antibody (primary antibody) is reacted with a second antibody bound to fluomicrospheres (SPA Type II RIA available from Amersham). Any radiolabelled rGH which is bound to the primary antibody will be immobilized on the fluomicrospheres which will then produce light. Measurement in a β-scintillation counter makes it possible to calculate the amount of radiolabelled rGH. The amount of radiolabelled rGH bound to the fluomicrospheres decreases with an increasing content of rGH in the sample.

EC50 | SMILES | Emax (% of GHRP-6)
11 nM | C[C@H](NC(=O)[C@@H](Cc1ccccc1)NC(=O)[C@@H](Cc1ccc2ccccc2c1)NC(=O)[C@H](Cc1c[nH]cn1)NC(=O)C(C)(C)N)C(N)=O [Example 88, H--Aib--His--D-2Nal-D--Phe--Ala--NH2] (H-[Aib]H[d2Nal][dF]A-NH2) | 80 % of GHRP-6
8 nM | CC(C)(N)C(=O)N[C@@H](Cc1ccccc1)C(=O)N[C@H](Cc1ccc2ccccc2c1)C(=O)N[C@H](Cc1ccccc1)C(=O)N[C@@H](CCCCN)C(N)=O [Example 83, H--Aib--Phe--D-2Nal-D--Phe--Lys--NH2] (H-[Aib]F[d2Nal][dF]K-NH2) | 75 % of GHRP-6
2 nM | C[C@H](N)C(=O)N[C@@H](Cc1ccccc1)C(=O)N[C@H](Cc1ccc2ccccc2c1)C(=O)N[C@H](Cc1ccccc1)C(=O)N[C@@H](CCCCN)C(N)=O [Example 10, H--Ala--Phe--D-2Nal-D--Phe--Lys--NH2] (H-AF[d2Nal][dF]K-NH2) | 90 % of GHRP-6
10 nM | C[C@H](N)C(=O)N[C@@H](Cc1c[nH]cn1)C(=O)N[C@H](Cc1cccc2ccccc12)C(=O)N[C@H](Cc1ccccc1)C(=O)N[C@@H](CCCCN)C(N)=O [Example 51, H--Ala--His--D-1Nal-D--Phe--Lys--NH2] (H-AH[d1Nal][dF]K-NH2) | 85 % of GHRP-6

Source: patent publication US5767085A, “Compounds with growth hormone releasing properties” (Novo Nordisk A/S, priority 1993, dated 1998)
